Measurements reported in publication PMC9814901, “One-pot synthesis of cyclic-aminotropiminium carboxylate derivatives with DNA binding and anticancer properties” (Communications Chemistry, 2022).

Columns and labels:
ct-DNA duplex = assay: Circular dichroism of ct-DNA with cATC derivatives; format: binding; details: increasing concentration of cATC derivatives
Text: Further, we examined the effect of cATC derivatives (6a/6e/6j/6n) on the ct-DNA duplex structure by circular dichroism (CD) studies. We recorded the CD spectra of ct-DNA with the increasing concentration of cATC derivatives (SM, Fig. S24). […] Next, we examined the binding site of cATC derivative (ligand) at the DNA duplex structure by using AutoDock-Vina, a well-reported computational docking program. We performed docking of cATC derivatives (6a/6d/6k) crystal structure (ligand) with dodecamer DNA duplex crystal structure (PDB ID-1BNA) as the receptor. Our docking results strongly support the non-covalent interaction of cATC derivatives (6a/6d/6k) at the DNA-minor groove with the binding affinity ~7.0 Kcal/mole, mostly hydrophobic interactions (SM, Figs. S25–7, Table S8). […] Overall, cATC derivatives non-covalently bind with DNA duplex through the non-intercalative mode without affecting the native duplex structure. Next, we examined the DNA binding affinity of cATC derivatives (6e/6j/6n) by gel-electrophoresis. The different concentrations of human genomic DNA were treated with EtBr (control) and cATC derivatives (6e/6j/6n) and ran on 1% agarose gel (SM, Fig. S28A–D). […] Further, the Microscale thermophoresis (MST) technique was used to calculate the binding affinities of cATC derivatives (6e/6j/6n) (20 µM) with varying concentrations of human genomic DNA (40 fM to 75 pM).

[1] = MTS cell viability assay in HeLa; format: cell-based; details: human, HeLa cells; HeLa, 50 μM, 18 h
Description: (§1) We investigated the effect of nine cATC derivatives (6b/6d/6e/6f/6i/6j/6k/6l/6n) on cell viability in cancer cell-line HeLa and transformed normal cell-line HEK293. We treated cells with the varying concentrations of the compounds ranging from 10 nM to 50 μM for 18 h (optimized).
(§2) MTS assay (CellTiter 96® AQueous One Solution Cell Proliferation Assay (Promega, USA) was used to determine the cell viability. HeLa and HEK293 cells (20,000 cells in each well) were plated in 96 well plate and treated with 6e, 6j, and 6n varying concentrations of the compounds ranging from 10 nM to 50 μM for 18 h. The assay was carried out according to the manufacturer’s instructions. Finally, the plate was read in Varioskan™ LUX multimode microplate reader (Thermo Fisher Scientific) at 490 nm.
(§3) Cell scavenging activity was calculated using the following formula:
(§4) OD(490nm) (control) – OD(490nm) (Test)/OD(490nm) (control) × 100%
(§5) Cell Viability of the cell was calculated using the following formula: […]

HeLa cells [2] = assay: MTS cell viability assay in HeLa; format: cell-based; details: for IC50: Homo sapiens
Description: as §1, §2, §3, §4, §5

[3] = test system: p38-p53 pathway and EMT markers in HeLa cells; assay: Western blot of p38-p53 pathway and EMT markers; format: cell-based
Description: In order to figure out the mechanism of apoptosis induction, we analyzed the effect of different concentrations of 6e (0 μM, 4 μM, 9 μM, 14 μM and 18 μM), 6j (0 μM, 5 μM, 10 μM, 15 μM and 19 μM), and 6n (0 μM, 5 μM, 10 μM, 15 μM and 19 μM) compounds on p38-p53 pathway.
Cell lysates were prepared from HeLa treated with compounds 6e, 6j, and 6n in ice-cold RIPA buffer (Thermo Scientific, USA), and supplemented with protease and phosphatase inhibitor cocktail (Thermo Scientific, USA). Protein quantification of cell lysates was done using BCA reagent (Thermo Scientific). 20 µg of protein samples were separated on a 12% SDS-PAGE and subsequently transferred onto a PVDF membrane (Merck Millipore, USA). The blots were probed with specific antibodies for p38 (1:1000, #9212, Cell Signaling Technology, USA), phospho-p38 (1:1000, #9211; Cell Signaling technology), p53 (1:1000, #9282, Cell signalling technology), phospho-p53 (1:1000, #9284, Cell Signaling technology), snail (1:1000, #C15D3, Cell Signaling technology), slug (1:1000, #C19G7, Cell signalling technology) and GAPDH (1:5000, #ABM22C5, Abgenex, India) followed by incubation with HRP tagged anti-mouse IgG secondary antibody (Abgenex) for GAPDH and HRP tagged anti-rabbit IgG secondary antibody (Abgenex) for p38, phospho-p38, p53, phospho-p53, snail and slug. The chemiluminescence signal was detected in ChemiDoc XRS + (Bio-Rad) using SuperSignal™ West Femto reagent (Thermo Scientific).

HeLa cells [4] = assay: Scratch (wound healing) assay in HeLa; format: cell-based; details: 6e 18 μM, 6j 19.23 μM, 6n 18.92 μM, 0 h to 24 h
Description: HeLa and HEK293 cells (0.25 × 10^6) were seeded into 12-well plates to grow in a monolayer for 24 h. A Scratch was made in the middle of the well using a sterile 200 µl pipette tip. The detached cells were removed by washing with 1x DPBS. The cell monolayers were treated for 18 h with 19 µM of 6n and 6j, and 18 µM of 6e with 10% DMEM. DMSO with 10% DMEM was used as a control. Images were collected at 0 h and 24 h under an inverted microscope (Ziess, Germany) at (4×) magnification. Cell migration was analyzed using ImageJ (NIH) software.

[5] = MTS cell viability assay in HEK293; format: cell-based; details: human, HEK293 cells, HEK293, 30 μM
Description: as §1, §2, §3, §4, §5

HEK293 cells = assay: MTS cell viability assay in HEK293; format: cell-based; details: HEK293, 30 μM, 18 h
Description: as §1, §2, §3, §4, §5

HeLa cells [6] = assay: Apoptosis analysis, FITC Annexin V / PI flow cytometry; format: cell-based; details: IC50 concentration, 18 h
Description: The apoptotic effect of 6e, 6j, and 6n compounds on cancer cells was detected using FITC Annexin V Apoptosis Detection Kit I (BD Pharmingen™, NJ, USA) according to the manufacturer’s protocol. 0.5 × 10^6 […] HeLa cells were seeded in a 6-well plate and treated with IC50 concentrations for 18 h. Harvested cells were incubated with Annexin V FITC and PI PE-conjugated antibody and apoptosis was evaluated using FACSCalibur (BD Biosciences, CA, USA) flow cytometry. Data were analyzed using CellQuest Pro software (BD Biosciences).

- IC50 (HeLa cells [2]; HeLa, values given in rebuttal letter of peer review file): 25.4 µM
- IC50 (HeLa cells [2]; MTS, 18 h, cell line not named in the sentence (HeLa implied)): 25.3 µM
Compound: Cc1cccc(C2C(C(=O)[O-])N(CCc3ccccc3)c3ccccc[c+]3N2Cc2ccccc2)c1 (stereo not drawn) [Compound 6e]
- effect on B-type duplex CD spectrum of ct-DNA (ct-DNA duplex): almost remained unchanged
- viability at 18 h, 50 µM [1]: 15.2%
- effect on HeLa cell proliferation (HeLa cells [2]; 10 nM to 50 μM, 18 h): retarded HeLa cell proliferation in a dose dependent manner
- Cell scavenging (HeLa cells [2]; HeLa, 50 μM, 18 h): 84.74%
- E-Cadherin expression ([3]; dose-dependent, 0-19 µM): increased expression of E-Cadherin
- expression of EMT markers (N-Cadherin, Snail, Slug) ([3]; dose-dependent, 0-19 µM): decreased expression of EMT markers
- phospho-P53 and phospho-P38 levels ([3]; increasing concentration 0-18 μM (6e), 0-19 μM (6j, 6n)): gradual increase in phospho-P53 and phospho-P38 levels
- effect on cell migration in scratch wound (HeLa cells [4]): inhibited cell migration significantly
- viability at 18 h, 30 µM [5]: 38.8%
- Growth inhibition (HEK293 cells): 61.1%
- Late Apoptotic cells (FITC-AV+/PI+) (HeLa cells [6]; control 2.9 %): 15.6%
- Early Apoptotic cells (FITC-AV+/PI-) (HeLa cells [6]; control 3.6 %): 62.5%
- cells entered into apoptotic phase (HeLa cells [6]; control 6.5%): 78.2%
